# Values of other authors in patent publication US11026985B2, “Methods for removing contaminants from plant-derived pharmaceuticals” (priority 2018, dated 2021).
# System: not given
# Conditions: permissible limit in Cannabis, State of Oregon
row,Molecule,Action Level (ppm)
1,CC1(C)C(C=C(Cl)Cl)C1C(=O)OCc1cccc(Oc2ccccc2)c1 (stereo not shown) [Permethrins],0.2
2,CCOCn1c(-c2ccc(Cl)cc2)c(C#N)c(Br)c1C(F)(F)F [Chlorfenapyr],1
3,C=CCOC(Cn1ccnc1)c1ccc(Cl)cc1Cl (stereo not shown) [Imazalil],0.2
4,COCC(=O)N(c1c(C)cccc1C)C(C)C(=O)OC (stereo not shown) [Metalaxyl],0.2
5,CCOC(=O)NCCOc1ccc(Oc2ccccc2)cc1 [Fenoxycarb],0.2
6,CCOC(=O)CC(SP(=S)(OC)OC)C(=O)OCC (stereo not shown) [Malathion],0.2
7,CNC(=O)Oc1cccc2ccccc12 [Carbaryl],0.2
8,CC(C)(C)C(O)(CCc1ccc(Cl)cc1)Cn1cncn1 (stereo not shown) [Tebuconazole],0.4
9,CNC(=O)O/N=C/C(C)(C)SC [Aldicarb],0.4
10,CNC(=O)Oc1cccc2c1OC(C)(C)C2 [Carbofuran],0.2
11,N#Cc1nn(-c2c(Cl)cc(C(F)(F)F)cc2Cl)c(N)c1[S+]([O-])C(F)(F)F (stereo not shown) [Fipronil],0.4
12,CC1C(c2ccc(Cl)cc2)SC(=O)N1C(=O)NC1CCCCC1 (stereo not shown) [Hexythiazox],1
13,CNC(=O)c1cc(Cl)cc(C)c1NC(=O)c1cc(Br)nn1-c1ncccc1Cl [Chlorantraniliprole],0.2
14,"CO/N=C(/C(=O)OC)c1ccccc1COc1ccccc1C [Kresoxim-methyl, Kresoxim- methyl]",0.4
15,CO/N=C(/C(=O)OC)c1ccccc1CO/N=C(\C)c1cccc(C(F)(F)F)c1 [Trifloxystrobin],0.2
16,CCCN(CC)CC1COC2(CCC(C(C)(C)C)CC2)O1 (stereo not shown) [Spiroxamine],0.4
17,CCCCC(C#N)(Cn1cncn1)c1ccc(Cl)cc1 (stereo not shown) [Myclobutanil],0.2
18,N#CCNC(=O)c1cnccc1C(F)(F)F [Flonicamid],1
19,N#Cc1c[nH]cc1-c1cccc2c1OC(F)(F)O2 [Fludioxonil],0.4
20,CNC(=O)Oc1ccccc1OC(C)C [Propoxur],0.2
21,O=C(Nc1ccccc1-c1ccc(Cl)cc1)c1cccnc1Cl [Boscalid],0.4
22,CCOC(=O)OC1=C(c2cc(C)ccc2C)C(=O)N[C@]12CC[C@@H](OC)CC2 [Spirotetramat],0.2
23,CCOc1cc(C(C)(C)C)ccc1C1COC(c2c(F)cccc2F)=N1 (stereo not shown) [Etoxazole],0.2
24,CCCCC(CC)CN1C(=O)C2C3C=CC(C3)C2C1=O (stereo not shown) [MGK-264],0.2
25,CC1(C)C(C=C(Cl)Cl)C1C(=O)OC(C#N)c1ccc(F)c(Oc2ccccc2)c1 (stereo not shown) [Cyfluthrin],1

row,Molecule,Action Level (ppm)
1,Spinosad,0.2
2,CNC(=O)ON=C(C)SC [Methomyl],0.4
3,C/C(=N\C#N)N(C)Cc1ccc(Cl)nc1 [Acetamiprid],0.2
4,C#CCC1=C(C)C(OC(=O)[C@@H]2[C@@H](C=C(C)C)C2(C)C)CC1=O (stereo partly shown) [Prallethrin],0.2
5,COP(=O)(OC)OC(Br)C(Cl)(Cl)Br (stereo not shown) [Naled],0.5
6,CNC(=O)O/N=C(\SC)C(=O)N(C)C [Oxamyl],1
7,CNC(=O)CSP(=S)(OC)OC [Dimethoate],0.2
8,CCOc1ccc(C(C)(C)COCc2cccc(Oc3ccccc3)c2)cc1 [Etofenprox],0.4
9,CCCCCCCCCCCCC1=C(OC(C)=O)C(=O)c2ccccc2C1=O [Acequinocyl],2
10,CN1COCN(Cc2cnc(Cl)s2)/C1=N\[N+](=O)[O-] [Thiamethoxam],0.2
11,Cc1nn(C)c(Oc2ccccc2)c1/C=N/OCc1ccc(C(=O)OC(C)(C)C)cc1 [Fenpyroximate],0.4
12,Cc1cc(C)c(C2=C(OC(=O)CC(C)(C)C)C3(CCCC3)OC2=O)c(C)c1 [Spiromesifen],0.2
13,COP(=O)(OC)OC=C(Cl)Cl [DDVP (Dichlorvos)],0.1
14,O=[N+]([O-])NC1=NCCN1Cc1ccc(Cl)nc1 [Imidacloprid],0.4
15,CNC(=O)Oc1cc(C)c(SC)c(C)c1 [Methiocarb],0.2
16,N#C/N=C1\SCCN1Cc1ccc(Cl)nc1 [Thiacloprid],0.2
17,COP(=O)(NC(C)=O)SC (stereo not shown) [Acephate],0.4
18,COP(=S)(OC)SCN1C(=O)c2ccccc2C1=O [Phosmet],0.2
19,CCCC1COC(Cn2cncn2)(c2ccc(Cl)cc2Cl)O1 (stereo not shown) [Propiconazole],0.4
20,Abamectin,0.5
21,CCOP(=S)(OCC)Oc1cc(C)nc(C(C)C)n1 [Diazinon],0.2
22,Cc1c(COC(=O)[C@@H]2[C@H](/C=C(\Cl)C(F)(F)F)C2(C)C)cccc1-c1ccccc1 (racemic) [Bifenthrin],0.2
23,CC(C)(C)c1ccc(CSc2cnn(C(C)(C)C)c(=O)c2Cl)cc1 [Pyridaben],0.2
24,COc1ccc(-c2ccccc2)cc1NNC(=O)OC(C)C [Bifenazate],0.2

# System: humans
# Conditions: not given
row,Molecule,toxicity to humans
1,CCCCOCCOCCOCc1cc2c(cc1CCC)OCO2 [Piperonyl butoxide],non-toxic

# System: not given
# Conditions: not given
row,Molecule,Water Soluble?
1,CCCCCc1cc(O)c(C/C=C(\C)CCC=C(C)C)c(O)c1 [Cannabigerol],No
2,C=C(C)[C@@H]1CCC(C)=C[C@H]1c1c(O)cc(CCC)cc1O [Cannabidivarin],No
